Several values for one entry are separate records, joined by “and”; a condition that tells them apart may be missing. Identical values can stand only once.
Key:
[1] = tested on: ALK fusion; assay: Phase I clinical trial: biomarker analysis of 26 subjects previously treated with at least one ALK inhibitor
[2] = tested on: Ba/F3 (SLC34A2-ROS1 G2032R) cell line; assay: Anti-tumor effect in subcutaneous transplanted Ba/F3 (SLC34A2-ROS1 G2032R) model; type: in vivo, NOD-SCID mice; settings: for average tumor volume: 21st day after administration
Excerpt: Housing environment: SPF grade.
Environmental conditions of the housing room of the laboratory animals: All the laboratory animals were housed in individually ventilated cages with constant temperature and constant humidity. […] The animals were continuously provided with cobalt-60 irradiated complete pelleted mouse feed with unlimited free access. The animals drank tap water (used after being autoclaved), which was provided continuously from water bottles, allowing for free access. The cages for raising the mice were polysulfone mice cages, which were autoclaved before use, and measured 325 mm × 210 mm × 180 mm. The bedding was autoclaved corn cobs. Each cage contained 5 animals. The cage cards were marked with the IACUC approval number, experiment number, start time of the experiment, project leader, experimenters, source of the animals, group, and animal number. The laboratory animals were marked with ear tags or ear labels.
The Ba/F3 (SLC34A2-ROS1 G2032R) cells in the exponential growth phase were collected, resuspended in PBS to a suitable concentration, and then subcutaneously inoculated into nude mice for tumor formation.
Assay method: Female NOD/SCID mice were subcutaneously inoculated with 2×10^6 Ba/F3 (SLC34A2-ROS1 G2032R) cells on the right side to establish a subcutaneous tumor transplantation model. […] The mice were administered orally via gavage once daily. The efficacy was evaluated based on the relative tumor growth inhibition rate (TGI), and the safety was evaluated based on the changes in the body weight and mortality of the animals.
All the procedures, including drug administration, tumor measurement, weight measurement, etc., were performed in a biosafety cabinet or on a clean bench.
The relative tumor growth rate (T/C%) was the percentage value of the relative tumor volume between a treatment group and the control group at a certain time point, or the percentage value of the tumor weight between a treatment group and the control group. The calculation formula was: T/C% = TRTV / CRTV × 100% (TRTV: the average RTV of the treatment group; CRTV: the average RTV of the solvent control group; RTV = Vt / V0, wherein V0 is the tumor volume of the animal at the time of grouping, and Vt is the tumor volume of the animal after treatment); or T/C% = TTW / CTW × 100% (TTW: the average tumor weight at the end of the assay in the treatment group; CTW: the average tumor weight at the end of the assay in the solvent control group).
Statistical analysis: To compare the tumor volume on a given day across the different treatment groups, we first used the Bartlett's test to verify the assumption of homogeneity of variance among all the groups. When the p-value of the Bartlett's test was not less than 0.05, one-way ANOVA was used to test whether the means of all the groups were equal. If the p-value of the one-way ANOVA was less than 0.05, we would use the Tukey's HSD test for the pairwise comparisons between all the groups, or use the Dunnett's test for a pairwise comparison between each treatment group and the control group. When the p-value of the Bartlett's test was less than 0.05, the Kruskal-Wallis test was used to test whether the medians of all the groups were equal. […]

[3] = bypass signaling alteration BRCA1
[4] = bypass signaling alteration BRCA2
[5] = bypass signaling alteration CCNE1
[6] = bypass signaling alteration CDKN2A
[7] = bypass signaling alteration EGFR
[8] = bypass signaling alteration IGF1R
[9] = bypass signaling alteration KIT
[10] = bypass signaling alteration MET
[11] = bypass signaling alteration RB1
[12] = bypass signaling alteration TP53

In the case of `[2H]C([2H])([2H])n1nc2c(c1C#N)-c1cnc(N)c(c1)O[C@H](C)c1cc(F)ccc1C(=O)N(C)C2` [compound A, (10R)-7-amino-12-fluoro-2-(methyl-d3)-10,16-dimethyl-15-oxo-10,15,16,17-tetrahydro-2H-8,4-(metheno)pyrazolo[4,3-h][2,5,11]benzoxadiazacyclotetradecine-3-carbonitrile], the “PFS, mutant TP53 versus wild-type TP53” value ([1]; ALK TKI resistance subgroup, P=0.235) was “no difference”, the “Disease control rate (CR + PR + SD)” value ([1]; ALK fusion (all 26 subjects)) was 20/26 and the “Overall response rate (CR + PR)” value ([1]; ALK fusion (all 26 subjects)) was 11/26. For the same compound, the Partial response ([1]; ALK fusion (all 26 subjects)) was 11 and 11/26, the Progressive disease ([1]; ALK fusion (all 26 subjects)) was 6/26 and the Stable disease ([1]; ALK fusion (all 26 subjects)) was 9/26. For the same compound, the “Disease control rate (CR + PR + SD)” value ([1]; ALK fusion V1) was 4/6, the “Overall response rate (CR + PR)” value ([1]; ALK fusion V1) was 2/6 and the Partial response ([1]; ALK fusion V1) was 2/6. The Progressive disease ([1]; ALK fusion V1) was 2/6, the Stable disease ([1]; ALK fusion V1) was 2/6 and the “Disease control rate (CR + PR + SD)” value ([1]; ALK fusion V2) was 3/3. The “Overall response rate (CR + PR)” value ([1]; ALK fusion V2) was 1/3, the Partial response ([1]; ALK fusion V2) was 1/3 and the Progressive disease ([1]; ALK fusion V2) was 0/3. The Stable disease ([1]; ALK fusion V2) was 2/3, the “Disease control rate (CR + PR + SD)” value ([1]; ALK fusion V3) was 7/8 and the “Overall response rate (CR + PR)” value ([1]; ALK fusion V3) was 5/8. For the same compound, the Partial response ([1]; ALK fusion V3) was 5/8, the Progressive disease ([1]; ALK fusion V3) was 1/8 and the Stable disease ([1]; ALK fusion V3) was 2/8. For the same compound, the “Disease control rate (CR + PR + SD)” value ([1]; ALK fusion V5) was 1/1, the “Overall response rate (CR + PR)” value ([1]; ALK fusion V5) was 1/1 and the Partial response ([1]; ALK fusion V5) was 1/1. The Progressive disease ([1]; ALK fusion V5) was 0/1, the Stable disease ([1]; ALK fusion V5) was 0/1 and the “Disease control rate (CR + PR + SD)” value ([1]; ALK fusion others) was 5/8. The “Overall response rate (CR + PR)” value ([1]; ALK fusion others) was 2/8, the Partial response ([1]; ALK fusion others) was 2/8 and the Progressive disease ([1]; ALK fusion others) was 3/8. For the same compound, the Stable disease ([1]; ALK fusion others) was 3/8, the “Disease control rate (CR + PR + SD)” value ([1]; ALK mutation (any)) was 10/12 and the “Overall response rate (CR + PR)” value ([1]; ALK mutation (any)) was 5/12. For the same compound, the Partial response ([1]; ALK mutation (any)) was 5/12, the Progressive disease ([1]; ALK mutation (any)) was 2/12 and the Stable disease ([1]; ALK mutation (any)) was 5/12. The “Disease control rate (CR + PR + SD)” value ([1]; ALK mutation p.E1210K p.D1203N) was 0/1, the “Overall response rate (CR + PR)” value ([1]; ALK mutation p.E1210K p.D1203N) was 0/1 and the Partial response ([1]; ALK mutation p.E1210K p.D1203N) was 0/1. For the same compound, the Progressive disease ([1]; ALK mutation p.E1210K p.D1203N) was 1/1, the Stable disease ([1]; ALK mutation p.E1210K p.D1203N) was 0/1 and the “Disease control rate (CR + PR + SD)” value ([1]; ALK mutation p.G1202R) was 5/6. For the same compound, the “Overall response rate (CR + PR)” value ([1]; ALK mutation p.G1202R) was 3/6, the Partial response ([1]; ALK mutation p.G1202R) was 3/6 and the Progressive disease ([1]; ALK mutation p.G1202R) was 1/6. For the same compound, the Stable disease ([1]; ALK mutation p.G1202R) was 2/6, the “Disease control rate (CR + PR + SD)” value ([1]; ALK mutation p.I1171N) was 1/1 and the “Overall response rate (CR + PR)” value ([1]; ALK mutation p.I1171N) was 0/1. The Partial response ([1]; ALK mutation p.I1171N) was 0/1, the Progressive disease ([1]; ALK mutation p.I1171N) was 0/1 and the Stable disease ([1]; ALK mutation p.I1171N) was 1/1. For the same compound, the “Disease control rate (CR + PR + SD)” value ([1]; ALK mutation p.I1171T) was 1/1, the “Overall response rate (CR + PR)” value ([1]; ALK mutation p.I1171T) was 0/1 and the Partial response ([1]; ALK mutation p.I1171T) was 0/1. For the same compound, the Progressive disease ([1]; ALK mutation p.I1171T) was 0/1, the Stable disease ([1]; ALK mutation p.I1171T) was 1/1 and the “Disease control rate (CR + PR + SD)” value [1, 3] was 0/1. For the same compound, the “Overall response rate (CR + PR)” value [1, 3] was 0/1, the Partial response [1, 3] was 0/1 and the Progressive disease [1, 3] was 1/1. For the same compound, the Stable disease [1, 3] was 0/1, the “Disease control rate (CR + PR + SD)” value [1, 4] was 1/1 and the “Overall response rate (CR + PR)” value [1, 4] was 1/1. The Partial response [1, 4] was 1/1, the Progressive disease [1, 4] was 0/1 and the Stable disease [1, 4] was 0/1. For the same compound, the “Disease control rate (CR + PR + SD)” value [1, 5] was 1/1, the “Overall response rate (CR + PR)” value [1, 5] was 1/1 and the Partial response [1, 5] was 1/1. For the same compound, the Progressive disease [1, 5] was 0/1, the Stable disease [1, 5] was 0/1 and the “Disease control rate (CR + PR + SD)” value [1, 6] was 1/1. For the same compound, the “Overall response rate (CR + PR)” value [1, 6] was 0/1, the Partial response [1, 6] was 0/1 and the Progressive disease [1, 6] was 0/1. For the same compound, the Stable disease [1, 6] was 1/1, the “Disease control rate (CR + PR + SD)” value [1, 7] was 1/1 and the “Overall response rate (CR + PR)” value [1, 7] was 0/1. For the same compound, the Partial response [1, 7] was 0/1, the Progressive disease [1, 7] was 0/1 and the Stable disease [1, 7] was 1/1. The “Disease control rate (CR + PR + SD)” value [1, 8] was 0/1, the “Overall response rate (CR + PR)” value [1, 8] was 0/1 and the Partial response [1, 8] was 0/1. The Progressive disease [1, 8] was 1/1, the Stable disease [1, 8] was 0/1 and the “Disease control rate (CR + PR + SD)” value [1, 9] was 1/1. The “Overall response rate (CR + PR)” value [1, 9] was 1/1, the Partial response [1, 9] was 1/1 and the Progressive disease [1, 9] was 0/1. The Stable disease [1, 9] was 0/1, the “Disease control rate (CR + PR + SD)” value [1, 10] was 2/2 and the “Overall response rate (CR + PR)” value [1, 10] was 1/2. For the same compound, the Partial response [1, 10] was 1/2, the Progressive disease [1, 10] was 0/2 and the Stable disease [1, 10] was 1/2. For the same compound, the “Disease control rate (CR + PR + SD)” value [1, 11] was 0/1, the “Overall response rate (CR + PR)” value [1, 11] was 0/1 and the Partial response [1, 11] was 0/1. For the same compound, the Progressive disease [1, 11] was 1/1, the Stable disease [1, 11] was 0/1 and the “Disease control rate (CR + PR + SD)” value [1, 12] was 7/9. For the same compound, the “Overall response rate (CR + PR)” value [1, 12] was 4/9, the Partial response [1, 12] was 4/9 and the Progressive disease [1, 12] was 2/9. For the same compound, the Stable disease [1, 12] was 3/9, the ORR ([1]; subjects with G1202R mutation) was 50% and the ORR ([1]; subjects with variant 1) was 33.3%. The ORR ([1]; subjects with variant 3) was 62.5%, the average tumor volume ([2]; 1.5 mg/kg p.o. once daily) was 1334.38 mm^3 and the average tumor volume ([2]; 5 mg/kg p.o. once daily) was 305.46 mm^3. The average tumor volume ([2]; 15 mg/kg p.o. once daily) was 0 mm^3 and the “tumor-bearing mice with tumor volume reduced to 0” value ([2]; 15 mg/kg, end of the assay) was 10/10.

From patent EP4810038A1, “METHOD FOR TREATING ALK-POSITIVE OR ROS1-POSITIVE NON-SMALL CELL LUNG CANCER” (Shenzhen TargetRx Co., Ltd., priority 2023, dated 2025)
